Consider 2 compounds from publication PMC5902632 (2018).

The test system of test [1] is AcDNA (DNA, duplex) AGATATGCATATCT
Nature of the test: NMR (HSQC, NOESY, relaxation dispersion). Conditions: 125 mM NaCl; 15 mM sodium phosphate, 0.1 mM EDTA, pH 5.3 or 6.8, 8% D2O; two orientations of the chromophore.

Test [2] relates to E12DNA-HG (DNA, duplex) ACGCACGT/ACGTGCGT
As to the kind of experiment: NMR (2D NOESY and HSQC). Conditions: 125 mM NaCl; 15 mM sodium phosphate, 0.1 mM EDTA, pH 5.3.

The test system of test [3] is E12DNA-WC (DNA, duplex) ACACGTAT/ATACGTGT
Nature of the test: NMR (2D HSQC chemical shift perturbation). The conditions noted are these: 125 mM NaCl; 15 mM sodium phosphate, 0.1 mM EDTA, pH 5.3 or 6.8; room temperature.

Test [4] concerns E12DNA (DNA, duplex) ACACGTACGTGT
As to the kind of experiment: NMR (HSQC chemical shift perturbation, relaxation dispersion). Conditions: 125 mM NaCl; 15 mM sodium phosphate, 0.1 mM EDTA, pH 5.3 or 6.8, 8% D2O; slow exchange.

Numbered stars: 1 amine (or outer) side, 2 acyl side, 3 side chain; on linkers, the order of the positions; unused ones are H or OH. Bridge positions count the residues as written; N and C are the ends. Square brackets hold non-standard residues; d marks the D form. Peptide text beside a SMILES is read from it. I, II: the chains in the order shown. Actinocin(9to1) = Cc1c2oc3c(C)ccc(C(=O)[*:1])c3nc-2c(C(=O)[*:2])c(N)c1=O; NMeV = CN[C@H](C(=O)O)C(C)C; Sar = CNCC(=O)O

As to `Cc1c2oc3c(C)ccc(C(=O)N[C@@H]4C(=O)N[C@H](C(C)C)C(=O)N5CCC[C@H]5C(=O)N(C)CC(=O)N(C)[C@@H](C(C)C)C(=O)O[C@@H]4C)c3nc-2c(C(=O)N[C@@H]2C(=O)N[C@H](C(C)C)C(=O)N3CCC[C@H]3C(=O)N(C)CC(=O)N(C)[C@@H](C(C)C)C(=O)O[C@@H]2C)c(N)c1=O` (I: T[dV]P[Sar][NMeV] / II: T[dV]P[Sar][NMeV]; ester I:1-I:C, II:1-II:C; linker I:N-II:N via Actinocin(9to1)), the binding entry in test [1] was “yes”.
`CSC1SC[C@H]2C(=O)N(C)[C@@H](C(C)C)C(=O)OC[C@@H](NC(=O)c3cnc4ccccc4n3)C(=O)N[C@@H](C)C(=O)N(C)[C@@H]1C(=O)N(C)[C@@H](C(C)C)C(=O)OC[C@@H](NC(=O)c1cnc3ccccc3n1)C(=O)N[C@@H](C)C(=O)N2C` (stereo partly shown): the binding result in test [2], in test [3] and in test [4] was “yes” each time.
